Legend:
Assay type in all cases: biochemical
Kit = target: T1, Kit (Homo sapiens, UniProt P10721); assay: AlphaScreen kinase assay, Kit; conditions: read-out: IC50, activity toward kinase Kit
T1 construct: P1332.N6 BI PTP KIT M552-K948-X COD; His6 (N); made in house; host or cells: E. coli (PTP1B co-expressed)

Ret = target: T2, Ret (Homo sapiens, UniProt P07949); assay: AlphaScreen kinase assay, Ret; conditions: read-out: IC50, activity toward kinase Ret
T2 construct: P1378.pET-SF BI-PTP RET H661-R1012 HIS; made in house
T2 sequence (P07949 with tags, fused parts or gaps): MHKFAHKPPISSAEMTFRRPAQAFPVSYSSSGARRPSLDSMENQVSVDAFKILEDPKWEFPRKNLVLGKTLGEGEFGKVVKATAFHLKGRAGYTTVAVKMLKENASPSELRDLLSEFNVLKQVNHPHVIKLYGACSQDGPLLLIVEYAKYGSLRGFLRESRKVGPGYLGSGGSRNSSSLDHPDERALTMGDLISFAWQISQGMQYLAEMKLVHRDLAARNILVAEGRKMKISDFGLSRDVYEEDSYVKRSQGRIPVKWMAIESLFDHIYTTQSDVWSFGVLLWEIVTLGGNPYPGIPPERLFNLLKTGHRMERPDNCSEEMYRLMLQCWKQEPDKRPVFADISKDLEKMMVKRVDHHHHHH
Excerpt: AlphaScreen assay was used to screen additional kinases. The assay is similarly dependent on the phosphorylation of a peptide substrate. In this assay, an antibody that recognizes phosphorylated substrate is bound to an acceptor bead. The peptide substrate is attached to biotin, which binds to a donor head that contains streptavidin. Thus phosphorylated substrate is bound by antibody and streptavidin, bringing the donor and acceptor heads into close proximity when kinase is not inhibited. The donor produces singlet oxygen which results in emission from the acceptor when they are in close proximity. Conversely, when kinase is inhibited, the donor and acceptor beads are not associated and the emission from the acceptor is reduced.
AlphaScreen assays were done using compounds dissolved in DMSO to a concentration of 20 mM. The compounds were diluted accordingly to the desired final concentrations in each sample well, using 1:3 serial dilution for a total of 8 concentration points. Plates were prepared such that each kinase reaction is 20 μl in 1× kinase buffer, 5% DMSO and 10 μM ATP. After incubation of the kinase reaction for 1 hour at room temperature, 5 μl of donor beads in stop buffer (50 mM EDTA in 1× kinase buffer) was added, the sample was mixed and incubated for 20 minutes at room temperature before adding 5 μl of acceptor beads in stop buffer. The samples were incubated for 60 minutes at room temperature and the signal per well was read on AlphaQuest reader.

Flt1 = target: T3, Flt1 (Homo sapiens, UniProt P17948); assay: AlphaScreen kinase assay, Flt1; conditions: read-out: IC50, activity toward kinase Flt1
T3 construct: P1826.pETN6 BI-PTP FLT1 M799-D1165-X WT; His6 (N); made in house; host or cells: E. coli (PTP1B co-expressed)
T3 sequence (P17948 with tags, fused parts or gaps): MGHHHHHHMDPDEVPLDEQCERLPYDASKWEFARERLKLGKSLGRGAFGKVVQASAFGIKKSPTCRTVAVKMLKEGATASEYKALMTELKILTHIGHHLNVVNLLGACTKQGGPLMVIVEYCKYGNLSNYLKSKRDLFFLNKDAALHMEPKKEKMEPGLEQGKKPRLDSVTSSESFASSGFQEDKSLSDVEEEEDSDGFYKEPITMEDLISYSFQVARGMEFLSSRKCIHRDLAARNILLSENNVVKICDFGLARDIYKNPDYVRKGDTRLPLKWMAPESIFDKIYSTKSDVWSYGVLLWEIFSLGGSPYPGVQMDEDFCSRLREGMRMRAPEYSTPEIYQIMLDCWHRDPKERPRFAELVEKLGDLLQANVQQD

FGFR1 = target: T4, FGFR1 (Homo sapiens, UniProt P11362, C488A/C584S); assay: AlphaScreen kinase assay, FGFR1; conditions: read-out: IC50, activity toward kinase FGFR
T4 construct: P1351.pET N6 BI-PTP FGFR A458-E765-X C488A, C584S; made in house; host or cells: E. coli (PTP1B co-expressed)

c-Raf-1 = target: T5, c-Raf-1 (Homo sapiens, UniProt P04049); assay: AlphaScreen kinase assay, c-Raf-1; conditions: read-out: IC50, activity toward kinase c-Raf-1
T5 construct: purchased Upstate Biotechnology

B-Raf = target: T6, B-Raf (Homo sapiens, UniProt P15056); assay: AlphaScreen kinase assay, B-Raf; conditions: read-out: IC50, activity toward kinase B-Raf
T6 construct: purchased Upstate Biotechnology

B-Raf V600E = target: T7, B-Raf V600E (Homo sapiens, UniProt P15056, V600E); assay: AlphaScreen kinase assay, B-Raf V600E; conditions: read-out: IC50, activity toward kinase B-Raf V600E
T7 construct: P4254. pFastBacBD-CDC37 BRAF D437-K722-X, V600E; His6 with pFastBac HT leader (TEV site) (N); made in house; host or cells: Sf9 (baculovirus; chaperone CDC37 co-expressed)

Fms = target: T8, Fms (Homo sapiens, UniProt P07333); assay: AlphaScreen kinase assay, Fms; conditions: read-out: IC50, activity toward kinase Fms
T8 construct: purchased Upstate Biotechnology
T8 sequence (P07333 20-972): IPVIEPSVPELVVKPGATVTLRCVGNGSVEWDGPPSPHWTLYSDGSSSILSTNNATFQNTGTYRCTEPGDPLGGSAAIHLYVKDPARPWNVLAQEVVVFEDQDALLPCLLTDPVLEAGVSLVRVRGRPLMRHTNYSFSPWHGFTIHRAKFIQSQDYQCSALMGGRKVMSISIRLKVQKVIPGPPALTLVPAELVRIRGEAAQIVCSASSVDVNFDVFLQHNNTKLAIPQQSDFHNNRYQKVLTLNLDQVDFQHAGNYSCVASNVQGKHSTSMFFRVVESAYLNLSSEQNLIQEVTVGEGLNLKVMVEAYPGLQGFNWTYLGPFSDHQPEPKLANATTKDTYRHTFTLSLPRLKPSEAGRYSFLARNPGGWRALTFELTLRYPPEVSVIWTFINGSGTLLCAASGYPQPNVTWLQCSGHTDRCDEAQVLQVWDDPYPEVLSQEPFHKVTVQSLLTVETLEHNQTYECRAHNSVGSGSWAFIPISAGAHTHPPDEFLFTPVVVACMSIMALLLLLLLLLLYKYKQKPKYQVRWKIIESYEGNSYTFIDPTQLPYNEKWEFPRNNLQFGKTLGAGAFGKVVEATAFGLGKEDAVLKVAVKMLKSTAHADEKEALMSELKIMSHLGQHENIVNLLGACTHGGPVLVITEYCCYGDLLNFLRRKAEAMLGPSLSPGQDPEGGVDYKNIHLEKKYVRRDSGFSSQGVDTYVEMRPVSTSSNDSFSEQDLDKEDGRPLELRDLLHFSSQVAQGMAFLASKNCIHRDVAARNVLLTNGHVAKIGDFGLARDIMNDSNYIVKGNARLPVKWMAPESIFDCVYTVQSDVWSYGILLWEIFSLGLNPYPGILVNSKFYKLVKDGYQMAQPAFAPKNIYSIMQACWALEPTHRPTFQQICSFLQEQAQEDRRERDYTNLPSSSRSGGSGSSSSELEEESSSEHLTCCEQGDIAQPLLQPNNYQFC

T4 sequence (P11362 458-765 C488A/C584S): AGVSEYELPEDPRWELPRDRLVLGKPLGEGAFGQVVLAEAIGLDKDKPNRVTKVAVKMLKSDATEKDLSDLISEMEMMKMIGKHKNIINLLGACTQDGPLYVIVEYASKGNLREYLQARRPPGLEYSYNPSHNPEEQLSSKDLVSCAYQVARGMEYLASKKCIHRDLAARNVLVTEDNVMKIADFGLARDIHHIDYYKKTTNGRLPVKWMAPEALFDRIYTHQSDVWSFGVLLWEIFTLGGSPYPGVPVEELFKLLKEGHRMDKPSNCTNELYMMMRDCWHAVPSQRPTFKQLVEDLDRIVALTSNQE
T6 sequence (P15056 whole entry): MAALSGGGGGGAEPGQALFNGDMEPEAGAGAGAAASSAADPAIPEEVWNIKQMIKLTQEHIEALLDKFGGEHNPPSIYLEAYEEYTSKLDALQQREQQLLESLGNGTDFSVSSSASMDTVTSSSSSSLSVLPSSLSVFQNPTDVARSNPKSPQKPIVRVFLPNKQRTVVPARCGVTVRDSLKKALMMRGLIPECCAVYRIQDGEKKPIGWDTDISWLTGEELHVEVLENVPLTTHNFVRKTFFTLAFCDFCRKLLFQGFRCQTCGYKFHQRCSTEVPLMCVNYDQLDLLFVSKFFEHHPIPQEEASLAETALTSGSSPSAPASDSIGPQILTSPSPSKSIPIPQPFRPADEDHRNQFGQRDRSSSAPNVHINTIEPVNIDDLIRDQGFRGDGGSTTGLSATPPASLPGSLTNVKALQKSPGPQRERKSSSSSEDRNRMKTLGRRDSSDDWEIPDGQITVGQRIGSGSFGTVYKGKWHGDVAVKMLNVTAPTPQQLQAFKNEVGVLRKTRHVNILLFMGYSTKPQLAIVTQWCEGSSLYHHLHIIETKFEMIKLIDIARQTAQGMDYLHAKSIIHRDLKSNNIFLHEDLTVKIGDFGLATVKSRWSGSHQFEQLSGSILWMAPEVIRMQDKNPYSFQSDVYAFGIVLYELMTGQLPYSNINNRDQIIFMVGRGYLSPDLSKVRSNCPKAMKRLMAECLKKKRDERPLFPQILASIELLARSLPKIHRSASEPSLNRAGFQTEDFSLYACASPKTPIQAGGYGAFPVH
T7 sequence (P15056 with tags, fused parts or gaps V600E): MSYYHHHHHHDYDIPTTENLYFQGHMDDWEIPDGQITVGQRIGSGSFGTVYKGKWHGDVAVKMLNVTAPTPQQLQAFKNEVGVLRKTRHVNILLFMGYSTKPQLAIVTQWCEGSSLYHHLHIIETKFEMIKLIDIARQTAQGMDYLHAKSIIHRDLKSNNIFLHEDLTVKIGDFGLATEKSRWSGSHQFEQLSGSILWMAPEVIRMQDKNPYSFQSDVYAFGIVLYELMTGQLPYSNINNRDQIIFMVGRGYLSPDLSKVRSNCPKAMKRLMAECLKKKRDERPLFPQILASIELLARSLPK
T1 sequence (P10721 with tags, fused parts or gaps): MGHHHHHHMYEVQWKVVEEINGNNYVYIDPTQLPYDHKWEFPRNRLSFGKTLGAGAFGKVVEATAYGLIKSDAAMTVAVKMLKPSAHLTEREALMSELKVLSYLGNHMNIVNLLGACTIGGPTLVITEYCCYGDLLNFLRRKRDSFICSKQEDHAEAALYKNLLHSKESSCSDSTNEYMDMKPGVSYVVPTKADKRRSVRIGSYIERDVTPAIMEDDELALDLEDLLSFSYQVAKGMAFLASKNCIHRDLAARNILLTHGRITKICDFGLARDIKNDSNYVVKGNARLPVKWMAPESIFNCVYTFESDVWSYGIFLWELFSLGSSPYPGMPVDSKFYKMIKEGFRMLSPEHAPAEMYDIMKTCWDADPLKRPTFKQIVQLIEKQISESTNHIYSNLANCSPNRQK
T5 sequence (P04049 whole entry): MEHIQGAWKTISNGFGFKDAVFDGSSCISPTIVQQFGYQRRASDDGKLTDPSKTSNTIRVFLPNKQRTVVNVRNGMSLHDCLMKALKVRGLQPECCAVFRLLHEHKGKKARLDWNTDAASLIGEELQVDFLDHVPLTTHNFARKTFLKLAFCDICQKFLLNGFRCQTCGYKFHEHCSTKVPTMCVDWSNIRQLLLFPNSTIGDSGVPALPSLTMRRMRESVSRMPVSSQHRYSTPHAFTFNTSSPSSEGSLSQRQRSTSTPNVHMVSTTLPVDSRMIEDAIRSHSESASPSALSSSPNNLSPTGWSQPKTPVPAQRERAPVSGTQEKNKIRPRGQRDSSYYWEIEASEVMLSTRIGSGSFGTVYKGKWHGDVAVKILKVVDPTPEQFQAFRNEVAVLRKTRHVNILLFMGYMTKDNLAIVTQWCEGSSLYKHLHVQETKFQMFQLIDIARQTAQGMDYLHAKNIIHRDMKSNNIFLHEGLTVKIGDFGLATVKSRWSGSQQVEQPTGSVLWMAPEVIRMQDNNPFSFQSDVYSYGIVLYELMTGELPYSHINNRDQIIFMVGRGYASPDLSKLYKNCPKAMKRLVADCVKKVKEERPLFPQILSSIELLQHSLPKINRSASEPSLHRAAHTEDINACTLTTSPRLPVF

Row | SMILES | IC50 (Kit) [µM] | IC50 (Ret) [µM] | IC50 (Flt1) [µM] | IC50 (FGFR1) [µM] | IC50 (c-Raf-1) [µM] | IC50 (B-Raf) [µM] | IC50 (B-Raf V600E) [µM] | IC50 (Fms) [µM]
1 | Cc1cc(C(=O)c2c[nH]c3ncc(-c4ccc(C(N)=O)cc4)cc23)nn1C [Compound P-0749] | ≤ 10 | ≤ 10 | ≤ 10 | ≤ 10 |  |  |  | 
2 | CC1CCN(c2cnc3[nH]ccc3c2)CC1 [Compound P-1122] |  |  |  |  | ≤ 10 |  |  | 
3 | c1ccc2cc(Nc3ccnc4[nH]ccc34)ccc2c1 [Compound P-0975] |  |  |  |  | ≤ 10 | ≤ 10 |  | 
4 | CS(=O)(=O)Nc1cccc(-c2cnc3[nH]cc(C(=O)c4cccc(OC(F)F)c4)c3c2)c1 [Compound P-1430, N-{3-[3-(3-Difluoromethoxy-benzoyl)-1H-pyrrolo[2,3-b]pyridin-5-yl]-phenyl}-methanesulfonamide] | ≤ 10 |  | ≤ 10 | ≤ 10 |  | ≤ 10 | ≤ 10 | ≤ 10
5 | O=S(=O)(Nc1ccc(F)c(C(O)c2c[nH]c3ncc(F)cc23)c1F)c1ccccc1 (stereo not shown) [Compound P-1003] |  |  |  |  | ≤ 10 | ≤ 10 | ≤ 10 | 
6 | COC(c1ccc(N(Cc2ccc(Cl)cc2)C(=O)OC(C)(C)C)nc1)c1c[nH]c2ncc(Br)cc12 (stereo not shown) [Compound P-0779] |  |  |  |  | ≤ 10 | ≤ 10 | ≤ 10 | 
7 | CCCS(=O)(=O)Nc1ccc(F)c(C(O)c2c[nH]c3ncc(OC)cc23)c1F (stereo not shown) [Compound P-1243, Propane-1-sulfonic acid {2,4-difluoro-3-[hydroxy-(5-methoxy-1H-pyrrolo[2,3-b]pyridin-3-yl)-methyl]-phenyl}-amide] |  |  |  |  | ≤ 10 | ≤ 10 | ≤ 10 | 
8 | Clc1cnc2[nH]ccc2c1 [Compound P-1063] |  |  |  |  | ≤ 10 |  | ≤ 10 | 
9 | COc1cccc(Nc2ccnc3[nH]ccc23)c1 [Compound P-1065] |  |  |  |  | ≤ 10 |  | ≤ 10 | 
10 | Cc1nc2ccc(Nc3ccnc4[nH]ccc34)cc2s1 [Compound P-1014] |  |  |  |  | ≤ 10 | ≤ 10 | ≤ 10 | 
11 | O=C(c1c(F)ccc(OC(F)F)c1F)c1c[nH]c2ncc(-c3cccnc3)cc12 [Compound P-1528, (3-Difluoromethoxy-2,6-difluoro-phenyl)-(5-pyridin-3-yl-1H-pyrrolo[2,3-b]pyridin-3-yl)-methanone] | ≤ 10 |  | ≤ 10 | ≤ 10 |  | ≤ 10 | ≤ 10 | ≤ 10
12 | CCCC(=O)Nc1ccc(F)c(C(=O)c2c[nH]c3ncc(Br)cc23)c1F [Compound P-1283] |  |  |  | ≤ 10 | ≤ 10 |  | ≤ 10 | 
13 | COC(c1ccc(NCc2ccc(Cl)c(C(F)(F)F)c2)nc1)c1c[nH]c2ncccc12 (stereo not shown) [Compound P-1064] |  |  |  |  | ≤ 10 |  | ≤ 10 | 
14 | Fc1cnc2[nH]ccc2c1 [Compound P-1061] |  |  |  |  | ≤ 10 |  | ≤ 10 | 
15 | c1cc2cc(N3CCOCC3)cnc2[nH]1 [Compound P-1118] |  |  |  |  | ≤ 10 |  |  | 
16 | CCCNS(=O)(=O)c1ccc(OC)c(C(=O)c2c[nH]c3ncc(-c4cccnc4)cc23)c1F [Compound P-1078] |  |  |  | ≤ 10 | ≤ 10 |  |  | 
17 | COC(c1ccc(NCc2ccc(C(F)(F)F)cc2)nc1)c1c[nH]c2ncccc12 (stereo not shown) [Compound P-0382] |  |  |  |  | ≤ 10 | ≤ 10 | ≤ 10 | 
18 | COc1cnc2[nH]cc(C(=O)c3c(F)ccc(NS(=O)(=O)c4cccc(C(F)(F)F)c4)c3F)c2c1 [Compound P-1598, N-[2,4-Difluoro-3-(5-methoxy-1H-pyrrolo[2,3-b]pyridine-3-carbonyl)-phenyl]-3-trifluoromethyl-benzenesulfonamide] | ≤ 10 |  | ≤ 10 |  |  | ≤ 10 | ≤ 10 | ≤ 10

Row | SMILES | IC50 (Kit) [µM] | IC50 (Ret) [µM] | IC50 (Flt1) [µM] | IC50 (FGFR1) [µM] | IC50 (c-Raf-1) [µM] | IC50 (B-Raf) [µM] | IC50 (B-Raf V600E) [µM] | IC50 (Fms) [µM]
19 | CCCNC(=O)c1ccc(OC)c(C(=O)c2c[nH]c3ncc(-c4cccnc4)cc23)c1F [Compound P-1077] |  |  |  |  | ≤ 10 |  |  | 
20 | O=[N+]([O-])c1cccc(Nc2ccnc3[nH]ccc23)c1 [Compound P-0973] |  |  |  |  | ≤ 10 | ≤ 10 |  | 
21 | CCC(C(=O)c1c[nH]c2ncccc12)S(=O)(=O)Nc1cc(F)cc(F)c1 (stereo not shown) [Compound P-1070] |  |  |  |  | ≤ 10 |  | ≤ 10 | 
22 | CCCS(=O)(=O)Nc1ccc(F)c(C(=O)c2c[nH]c3ncc(-c4cccc(F)c4)cc23)c1F [Compound P-1259, Propane-1-sulfonic acid {2,4-difluoro-3-[5-(3-fluoro-phenyl)-1H-pyrrolo[2,3-b]pyridine-3-carbonyl]-phenyl}-amide] | ≤ 10 |  | ≤ 10 | ≤ 10 |  | ≤ 10 | ≤ 10 | ≤ 10
23 | CCOc1cccc(Nc2ccnc3[nH]ccc23)c1 [Compound P-1076] |  |  |  |  | ≤ 10 | ≤ 10 |  | 
24 | Fc1ccc(Nc2ccnc3[nH]ccc23)cc1F [Compound P-0987] |  |  |  |  | ≤ 10 | ≤ 10 |  | 
25 | COc1cccc(Cc2c[nH]c3ncc(Br)cc23)c1F [Compound P-0535, 5-Bromo-3-(2-fluoro-3-methoxy-benzyl)-1H-pyrrolo[2,3-b]pyridine] | ≤ 10 |  |  | ≤ 10 | ≤ 10 |  | ≤ 10 | ≤ 10
26 | O=C(c1c(F)ccc(NS(=O)(=O)c2ccc(Cl)c(Cl)c2)c1F)c1c[nH]c2ncccc12 [Compound P-1015, 3,4-Dichloro-N-[2,4-difluoro-3-(1H-pyrrolo[2,3-b]pyridine-3-carbonyl)-phenyl]-benzenesulfonamide] |  |  |  | ≤ 10 | ≤ 10 |  | ≤ 10 | 
27 | CC(=O)Nc1cccc(Nc2ccnc3[nH]ccc23)c1 [Compound P-0941] |  |  |  |  | ≤ 10 | ≤ 10 |  | 
28 | COC(=O)Nc1ccc(F)c(C(=O)c2c[nH]c3ncccc23)c1F [Compound P-0974, [2,4-Difluoro-3-(1H-pyrrolo[2,3-b]pyridine-3-carbonyl)-phenyl]-carbamic acid methyl ester] |  |  |  | ≤ 10 | ≤ 10 |  |  | 
29 | CC(C)Oc1cccc(Nc2ccnc3[nH]ccc23)c1 [Compound P-1079] |  |  |  |  | ≤ 10 |  |  | 
30 | CCCS(=O)(=O)Nc1ccc(F)c(C(=O)c2c[nH]c3ncc(C(=O)O)cc23)c1F [Compound P-1559, 3-[2,6-difluoro-3-(propane-1-sulfonylamino)-benzoyl]-1H-pyrrolo[2,3-b]pyridine-5-carboxylic acid] | ≤ 10 |  | ≤ 10 |  |  | ≤ 10 | ≤ 10 | ≤ 10
31 | O=C(c1cccc(OC(F)(F)F)c1)c1c[nH]c2ncc(-c3cccnc3)cc12 [Compound P-1413, (5-Pyridin-3-yl-1H-pyrrolo[2,3-b]pyridin-3-yl)-(3-trifluoromethoxy-phenyl)-methanone] | ≤ 10 |  |  |  | ≤ 10 |  | ≤ 10 | 
32 | CCCS(=O)(=O)Nc1cccc(C(=O)c2c[nH]c3ncc(F)cc23)c1F [Compound P-1028, propane-1-sulfonic acid [2-fluoro-3-(5-fluoro-1H-pyrrolo[2,3-b]pyridine-3-carbonyl)-phenyl]-amide] |  |  |  |  | ≤ 10 | ≤ 10 | ≤ 10 | 
33 | O=S(=O)(Nc1ccc(F)c(C(O)c2c[nH]c3ncc(Br)cc23)c1F)c1ccccc1 (stereo not shown) [Compound P-0959] |  |  |  |  | ≤ 10 | ≤ 10 | ≤ 10 | 
34 | CCCS(=O)(=O)Nc1ccc(F)c(C(O)c2c[nH]c3ncc(N4CCOCC4)cc23)c1F (stereo not shown) [Compound P-1071] |  |  |  |  | ≤ 10 |  | ≤ 10 | 
35 | O=C(c1c(F)ccc(OC(F)F)c1F)c1c[nH]c2ncc(Br)cc12 [Compound P-1526, (5-Bromo-1H-pyrrolo[2,3-b]pyridin-3-yl)-(3-difluoromethoxy-2,6-difluoro-phenyl)-methanone] | ≤ 10 |  | ≤ 10 | ≤ 10 |  | ≤ 10 | ≤ 10 | ≤ 10

— patent publication US8415469B2, “Compounds and methods for kinase modulation, and indications therefor” (Plexxikon Inc., priority 2005, dated 2013)
